Experimental data: patent US20240180937A1, “CYTOKINE PRODUCTION SUPPRESSING COMPOSITION CONTAINING D-ALLOSE AS ACTIVE COMPONENT, AND METHOD OF TREATING OR PREVENTING DISEASE ASSOCIATED WITH CYTOKINE OVERPRODUCTION USING SAME” (NATIONAL UNIVERSITY CORPORATION KAGAWA UNIVERSITY, priority 2021, published 2024)

Columns and labels:
Format in all cases: cell-based, C57BL/6N mice
[1] = test system: plasmacytoid dendritic cells (pDC); test: Cytokine production by plasmacytoid dendritic cells (spleen or bone marrow) after TLR7/TLR9 ligand stimulation, ELISA of culture supernatant; conditions: for IFN-α production accompanying stimulation of pDCs / IL-12 production accompanying stimulation of pDCs: stimulation with TLR7 ligand poly(U) or TLR9 ligand CpG DNA (D19 and 1668), sugar 0.2 w/v % in glucose-free medium
Procedure: CD317-positive cells were prepared by magnetic bead sorting (MACS) from spleen cells obtained from C57BL/6N mice (Clea Japan, Inc.), as plasmacytoid dendritic cells (pDC) (FIG. 1(A)). CD11c-positive cells in the CD317-negative cell fraction were then prepared using magnetic beads, as conventional dendritic cells (CDC) (FIG. 1(A)). CD317-positive cells were also prepared using magnetic beads from bone marrow cells obtained from C57BL/6N mice (Clea Japan, Inc.), as bone marrow pDCs (FIG. 1(B)).
The obtained pDCs and cDCs were inoculated into a 96-well plate using glucose-free PRMI1640 medium with addition of 10 v/v % FCS, 100 μM 2-mercaptoethanol, 50 μg/ml streptomycin and 50 units/ml penicillin G, after which a rare sugar (D-allose, D-allulose or L-allulose) or D-glucose or D-fructose, was added to a final concentration of 0.2 w/v %.
The pDCs were stimulated with non-stimulating medium and TLR7 ligand (polyuridylic acid at a final concentration of 2.5 μg/ml (Poly(U) (Sigma) mixed with Lipofectamine 2000 (Thermo Fisher Scientific)), 100 nM R848 (InvivoGen), or TLR9 ligand (synthetic DNA (3 μM of D19: 5′-GGtgcatcgatgcagGGGGg-3′ and 0.03 μM of 1668: 5′-[…]-3′ (where uppercase indicates phosphorothioate DNA and lowercase indicates phosphodiester DNA))), and the IFN-α in the culture supernatant after 20 to 24 hours was measured using ELISA by InvivoGen while the IL-12p40 was measured using ELISA by Biolegend.

[2] = test system: intraperitoneal macrophages; test: TNF-α and nitric oxide production by intraperitoneal macrophages after LPS/IFN-γ stimulation; conditions: 100 ng/ml LPS and 5 ng/ml IFN-γ; sugar in the medium; supernatant after 20 to 24 hours; data not shown
Procedure: The obtained pDCs and cDCs were inoculated into a 96-well plate using glucose-free PRMI1640 medium with addition of 10 v/v % FCS, 100 μM 2-mercaptoethanol, 50 μg/ml streptomycin and 50 units/ml penicillin G, after which a rare sugar (D-allose, D-allulose or L-allulose) or D-glucose or D-fructose, was added to a final concentration of 0.2 w/v %. After administering 2 ml of 4 w/v % Brewer thioglycollate medium (Sigma) intraperitoneally to C57BL/6N mice, the intraperitoneal macrophages on the 3rd day were collected and used. After inoculation into the same medium as the DCs, stimulation was with 100 ng/ml of Lipopolysaccharide E. coli O111:B4 (Sigma) and 5 ng/ml of IFN-γ (Biolegend), the TNF-α in the culture supernatant after 20 to 24 hours was measured using ELISA by Biolegend and the nitric oxide was measured using a NO2/NO3 Assay Kit-C II (Colorimetric) (Griess Reagent Kit) (Dojindo Laboratories).

[3] = test system: conventional dendritic cells (cDC); test: Cytokine production by spleen-derived conventional dendritic cells after stimulation, ELISA of culture supernatant
Procedure: CD317-positive cells were prepared by magnetic bead sorting (MACS) from spleen cells obtained from C57BL/6N mice (Clea Japan, Inc.), as plasmacytoid dendritic cells (pDC) (FIG. 1(A)). CD11c-positive cells in the CD317-negative cell fraction were then prepared using magnetic beads, as conventional dendritic cells (CDC) (FIG. 1(A)). CD317-positive cells were also prepared using magnetic beads from bone marrow cells obtained from C57BL/6N mice (Clea Japan, Inc.), as bone marrow pDCs (FIG. 1(B)). The obtained pDCs and cDCs were inoculated into a 96-well plate using glucose-free PRMI1640 medium with addition of 10 v/v % FCS, 100 μM 2-mercaptoethanol, 50 μg/ml streptomycin and 50 units/ml penicillin G, after which a rare sugar (D-allose, D-allulose or L-allulose) or D-glucose or D-fructose, was added to a final concentration of 0.2 w/v %. The cDCs were stimulated with non-stimulating medium, 100 nM of R848 and 1 μM of 1668, and the IL-12p40 in the culture supernatant after 20 to 24 hours was measured using ELISA by Biolegend.

[4] = supernatant after 20 to 24 hours
[5] = supernatant after 20 to 24 hours, IL-12p40 ELISA

Compound | IFN-α production accompanying stimulation of pDCs [1, 4] | IL-12 production accompanying stimulation of pDCs [1, 5] | TNF-α production by macrophages upon lipopolysaccharide (LPS) stimulation [2] | nitric oxide production by macrophages upon lipopolysaccharide (LPS) stimulation [2] | IFN-α production by pDCs after low molecular weight TLR7 ligand stimulation ([1]; low molecular weight TLR7 ligands including R848 (100 nM), sugar 0.2 w/v %, supernatant after 20 to 24 hours) | IL-12 production by pDCs after low molecular weight TLR7 ligand stimulation ([1]; low molecular weight TLR7 ligands including R848 (100 nM), sugar 0.2 w/v %, supernatant after 20 to 24 hours, IL-12p40 ELISA) | pDC cytokine production after activation in medium containing D-allose ([1]; summary statement) | IL-12 production by cDCs after CpG DNA (1668) stimulation ([3]; 1 μM 1668, sugar 0.2 w/v %, supernatant after 20 to 24 hours, IL-12p40 ELISA) | cDC cytokine production after activation in medium containing D-allose ([3]; summary statement)
O=C(CO)[C@H](O)[C@H](O)[C@H](O)CO [D-allulose] | not observed | not observed | not attenuated | not attenuated |  |  |  |  | 
O=C[C@H](O)[C@@H](O)[C@H](O)[C@H](O)CO [D-glucose] | not observed | not observed |  |  |  |  |  |  | 
O=C(CO)[C@@H](O)[C@@H](O)[C@@H](O)CO [L-allulose] | not observed | not observed | not attenuated | not attenuated |  |  |  |  | 
O=C[C@H](O)[C@H](O)[C@H](O)[C@H](O)CO [D-allose] | notably attenuated | notably attenuated | not attenuated | not attenuated | not reduced | not reduced | lowered | not lowered | not lowered
O=C(CO)[C@@H](O)[C@H](O)[C@H](O)CO [D-fructose] | not observed | not observed | not attenuated | not attenuated |  |  |  |  | 
